For data set [1], the system named is mice. In words: One month treatment toxicity in mice (pathology report). The format is in vivo, mouse. The note with it: one month treatment (Additional file 1). The protocol:
Casp6 transgenic mouse model: All animal procedures followed the Canadian Council on Animal Care guidelines and were approved by the McGill Animal care committees. Sixteen to 20 month old C57BL/6 J mice were bred and aged in the pathogen-free Goodman Cancer Research Centre Mouse Transgenic Facility at McGill University. Mice were housed in a temperature-controlled room at 22 °C and were kept on a 12 h light/dark cycle. Food and water were available at libitum. Casp6 overexpressing mice (KI/Cre) express Casp6p20p10 under the CAG promoter (CMV immediate early enchancer/chicken β-actin promoter fusion) in the CA1 pyramidal cell layer of the hippocampus under the control of calmodulin kinase IIa (CAMKIIa)-regulated Cre expression.
Additional file 1: Pathology report. Contains pharmacokinetic and toxicological analysis of CD-1 mice treated with NWL-117 for 28 days every 3 days. (PDF 3742 kb) Additional file 2: Figures S1-S4. Contains additional information to complement Figs. 3, 4, and 6 of the manuscript. (PDF 463 kb)

Data set [2] relates to mice hippocampi. Nature of the data set: Hippocampal Casp6 substrates, synaptic and glial markers after treatment (western blot, immunohistochemistry). It counts as in vivo, mouse. The source says:
Protein extracts from HCT116 cells and human primary neurons were subjected to western blotting analyses. The 10630 (1:10 000) and GN60622 (1:10 000) neoepitope antibodies against the p20 subunit of active Casp6 (Casp6p20) and α-tubulin cleaved by Casp6 (TubΔCasp6) were generated previously in our laboratory. The β-actin clone AC-15 (1:5 000, Sigma-Aldrich, Oakville, ON, CA), Casp6 (1:1 000), Synapsin (1:5 000), full-length α-tubulin (1:1 000, Cell Signalling Technology Inc., Danvers, MA, USA), GFAP (1:3 000, Dako, Burlington, ON, CA), synaptophysin (1:5 000, Sigma, Oakville, ON, CA), and PSD95 clone K28143 (1:5 000, UC Davis/NIH NeuroMab Facility) were purchased. All antibodies were diluted in 5% non-fat dry milk. Secondary anti-mouse (1:5 000, GE Healthcare Life Sciences, Baie D’Urfe, QC, CA) and anti-rabbit antibodies (1:5 000, Dako, Burlington, ON, CA) conjugated to horseradish peroxidase were used to detect immunoreactive proteins using ECL prime western blotting detection reagent (GE Healthcare Life Sciences, Baie D’Urfe, QC, CA) and Kodak BioMax MR film (Kodak, Rochester, NY, USA). Secondary anti-mouse conjugated to alkaline phosphatase (Jackson Immunoresearch Laboratories Inc., West Grove, PA) was developed with nitro-blue tetrazolium (Thermo Fisher Scientific, Waltham, MA, USA) and 5-bromo-4-chloro-3-indolylphosphate (Thermo Fisher Scientific, Waltham, MA, USA) for chromogenic detection of proteins. The western blots were scanned with an HP scanner and the images were not manipulated except to adjust the brightness/contrast and this was done simultaneously to the entire blot. Quantification was performed with the ImageJ software (NIH, Bethesda, MD, USA).
Only males were used and littermates from each genotype (wild type (WT)/WT, WT/Cre, & knock-in (KI/)Cre) were tested together. The experimenter was blind to genotype and treatment groups. Mice were administered 20 mg/kg NWL-117 or physiological saline (0.9% NaCl) by intraperitoneal injections two times 48 h apart. […] Blood brain barrier permeability of NWL-117 caspase inhibitor: Briefly, 18–22 month old Casp6 mice were anesthetised with isoflurane, warmed with a heating blanket, and their physiological vitals (heart rate, body temperature, and respiration) monitored. The skin over the mouse’s neck was shaved, xylocaine applied, and an incision was made along the midline. Under a surgical microscope, the right carotid artery was gently separated from surrounding tissue. Two suture threads were placed at the proximal and distal ends of the carotid, and a small incision was made along the carotid wall. A micro-catheter (attached to a 1 ml syringe controlled by a micropump) was inserted and pushed to the entrance of the internal carotid artery. The catheter was secured in place using suture thread. NWL-117 (20 mg/kg) was infused via the micro-catheter using a pump set at 50 μL/min (total volume between 64 μL and 130 μL). After 5 min, blood was collected by intra-cardiac puncture, the mouse was perfused through the heart with ice cold saline for 2–3 min. The brain was removed and hippocampi were dissected and frozen on dry ice and stored. Samples were sent to the Biopharmacy platform at the University of Montreal (Quebec, Canada) for liquid chromatography and tandem mass spectrometry analysis. The integrity of the blood-brain barrier was confirmed by injecting 3% Evan’s blue solution in 20 month old Casp6 mice. […]
(In general: Immunoblotting shows a protein as a band on a membrane.)

For `CCC(C)[C@H](NC(=O)[C@H](CCC(=O)O)NC(=O)[C@@H](NC(=O)OCc1ccccc1)C(C)C)C(=O)N[C@H](/C=C/S(C)(=O)=O)CC(=O)O` (stereo partly drawn) [NWL-117], the “toxicity after one month treatment” value in data set [1] is on record as “No obvious toxicity”. Besides, in data set [2] (20 mg/kg i.p.), the “Synapsin, synaptophysin and PSD95 hippocampal protein levels” value is on record as “unchanged”; the “TubΔCasp6 immunostaining, CA1, KI/Cre mice” value is “increased non-significantly”; the “TubΔCasp6 immunostaining, CA1, control mice” value is “non-significantly decreased TubΔCasp6 levels threefold”. In data set [2] (KI/Cre mice hippocampal extracts), the GFAP levels result is recorded as “did not change”. Besides, the “p97 cleaved by Casp6 (Δp97)” value in data set [2] (KI/Cre mice, versus saline) was “not different”.

For the origin of these results see article PMC5329948, “Caspase vinyl sulfone small molecule inhibitors prevent axonal degeneration in human neurons and reverse cognitive impairment in Caspase-6-overexpressing mice” (Molecular Neurodegeneration, 2017).
